Results taken from patent US10221426B2, “Constitutively active PYR/PYL receptor proteins for improving plant stress tolerance” (The Regents of the University of California, priority 2009, dated 2019).

Tested on: PYR/PYL receptors PYR1, PYL2, PYL3, and/or PYL4
Assay: Yeast two hybrid agonist screens (conventional and halo assays; compound library and plant extracts)
Type: cell-based, Arabidopsis
Description: We next investigated whether other compounds besides ABA and pyrabactin could act as agonists of PYR/PYL proteins. Yeast two hybrid strains expressing ABA-receptors and type 2 C protein phosphatases in the appropriate vectors can be used to monitor activation of ABA receptors. These yeast strains therefore create a facile screening system for the identification of cell permeant compounds that act as ABA agonists, i.e. compounds that promote binding of PYR/PYL family members to their protein phosphatase targets. […]
To conduct these agonist assays, screening compounds are added to microtiter wells and appropriate yeast growth media are added. The wells are then seeded with PYR/PYL-PP2C strains and agonist activity is monitored after growth of the strains on the chemical-containing medium. […]
Using a combination of the conventional and halo assays as described above, 65,000 screening compounds were tested for activation of PYR1, PYL2, PYL3 or PYL4 expressing yeast two hybrid strains. Hit compounds that activated any of the yeast strains were retested on all 4 yeast strains and activity assessed qualitatively using X-gal staining assays. […]

- activation of PYR/PYL yeast two hybrid strains: naturally occurring ABA agonist
Substance: copaenoic acid
